Columns and labels:
[1] = molecular target: T1, LCMV NP-exo (Lymphocytic choriomeningitis virus (strain Armstrong), UniProt P09992)
T1 construct: gene N

[2] = molecular target: T2, MOPV NP-exo (Mammarenavirus mopeiaense, UniProt P19239); conditions: 5 mM MnCl2, pH 8.0, 310 K, 5 min, 0.25 µM enzyme, 1.5 µM HP4 RNA; Mn2+-dependent; acts by metal-ion chelation
T2 construct: gene N
T2 sequence (P19239 365-570 limits assumed): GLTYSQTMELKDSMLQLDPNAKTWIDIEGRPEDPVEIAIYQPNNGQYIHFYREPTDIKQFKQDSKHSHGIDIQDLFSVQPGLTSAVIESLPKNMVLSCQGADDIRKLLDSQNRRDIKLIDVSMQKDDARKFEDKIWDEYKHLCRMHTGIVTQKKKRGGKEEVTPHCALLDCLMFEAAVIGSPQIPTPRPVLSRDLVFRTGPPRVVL

T1 sequence (P09992 357-558 limits assumed): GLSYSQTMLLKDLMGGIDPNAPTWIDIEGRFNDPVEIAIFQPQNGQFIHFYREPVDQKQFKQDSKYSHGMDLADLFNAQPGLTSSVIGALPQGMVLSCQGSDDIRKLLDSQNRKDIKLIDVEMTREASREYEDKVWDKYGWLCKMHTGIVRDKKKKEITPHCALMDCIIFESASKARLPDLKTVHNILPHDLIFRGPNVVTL

Q: How did the IC50 [1] turn out when alendronate was run?
A: 68.6 ± 4.2 µM

Q: And the IC50 [2]?
A: 65.9 ± 1.7 µM

From article PMC9252148 (IUCrJ, 2022)
